Assay results from the NIST ThermoML archive (doi:10.1016/j.jct.2006.07.018).

Assay: mn = molality of the nth substance listed, in mol/kg
Conditions: 350 kPa, Liquid, Vibrating tube method

CSCC[C@H](N)C(=O)O [L-methionine] + O
mass density [kg/m3]
Conditions | m1 = 0.0125 | m1 = 0.025 | m1 = 0.05 | m1 = 0.0997 | m1 = 0.1501 | m1 = 0.1929
278.15 K | 1000.87 | 1001.33 | 1002.43 | 1005.13 | 1007.08 | 1008.66
283.15 K | 1000.6 | 1001.06 | 1002.07 | 1004.77 | 1006.7 | 1008.25
288.15 K | 999.97 | 1000.44 | 1001.43 | 1004.07 | 1005.97 | 1007.5
298.15 K | 997.89 | 998.35 | 999.32 | 1001.89 | 1003.72 | 1005.21
308.15 K | 994.85 | 995.32 | 996.3 | 998.76 | 1000.54 | 1002.01
318.15 K | 991.01 | 991.47 | 992.35 | 994.85 | 996.62 | 998.08
328.15 K | 986.48 | 986.94 | 987.79 | 990.26 | 992 | 993.45
338.15 K | 981.32 | 981.79 | 982.66 | 985.05 | 986.79 | 988.23
348.15 K | 975.6 | 976.09 | 976.97 | 979.29 | 981.03 | 982.49
358.15 K | 969.38 | 969.84 | 970.77 | 973.02 | 974.79 | 976.26
368.15 K | 962.63 | 963.11 | 964.09 | 966.29 | 968.05 | 969.51
